In ChEMBL document CHEMBL4138123, “Design, synthesis and biological evaluation of novel pyrazolochalcones as potential modulators of PI3K/Akt/mTOR pathway and inducers of apoptosis in breast cancer cells” (Eur J Med Chem, 2017):

How the values were obtained:
Type in all cases: functional
SNB-19 = assay: Cytotoxicity against human SNB19 cells assessed as cell growth at 100 uM after 48 hrs by sulforhodamine B assay relative to control; details: SNB-19, 48 h, read-out: Activity
MOLT-4 [1] = assay: Cytotoxicity against human MOLT4 cells assessed as growth inhibition after 48 hrs by sulforhodamine B assay; details: MOLT-4, 48 h
HCC 2998 = assay: Cytotoxicity against human HCC2998 cells assessed as cell growth at 10 uM after 48 hrs by sulforhodamine B assay relative to control; details: HCC 2998, 48 h, read-out: Activity
K562 = assay: Cytotoxicity against human K562 cells assessed as cell growth at 10 uM after 48 hrs by sulforhodamine B assay relative to control; details: K562, 48 h, read-out: Activity
UACC-257 = assay: Cytotoxicity against human UACC257 cells assessed as cell growth at 0.1 uM after 48 hrs by sulforhodamine B assay relative to control; details: UACC-257, 48 h, read-out: Activity
786-0 [2] = assay: Cytotoxicity against human 786-0 cells assessed as cell growth at 0.1 uM after 48 hrs by sulforhodamine B assay relative to control; details: 786-0, 48 h, read-out: Activity
MOLT-4 [3] = assay: Cytotoxicity against human MOLT4 cells assessed as cell growth at 0.1 uM after 48 hrs by sulforhodamine B assay relative to control; details: MOLT-4, 48 h, read-out: Activity
A498 [4] = assay: Cytotoxicity against human A498 cells assessed as cell growth at 0.01 uM after 48 hrs by sulforhodamine B assay relative to control; details: A498, 48 h, read-out: Activity
SF-268 [5] = assay: Cytotoxicity against human SF268 cells assessed as cell growth at 10 uM after 48 hrs by sulforhodamine B assay relative to control; details: SF-268, 48 h, read-out: Activity
RXF 393 = assay: Cytotoxicity against human RXF393 cells assessed as cell growth at 0.1 uM after 48 hrs by sulforhodamine B assay relative to control; details: RXF 393, 48 h, read-out: Activity
DU-145 = assay: Cytotoxicity against human DU145 cells assessed as growth inhibition after 48 hrs by sulforhodamine B assay; details: DU-145, 48 h
BT-549 = assay: Cytotoxicity against human BT549 cells assessed as cell growth at 0.1 uM after 48 hrs by sulforhodamine B assay relative to control; details: BT-549, 48 h, read-out: Activity
Malme-3M = assay: Cytotoxicity against human MALME-3M cells assessed as cell growth at 1 uM after 48 hrs by sulforhodamine B assay relative to control; details: read-out: Activity
SF-268 [6] = assay: Cytotoxicity against human SF268 cells assessed as growth inhibition after 48 hrs by sulforhodamine B assay; details: SF-268, 48 h
PC-3 = assay: Cytotoxicity against human PC3 cells assessed as cell growth at 10 uM after 48 hrs by sulforhodamine B assay relative to control; details: PC-3, 48 h, read-out: Activity
NCI-H322M = assay: Cytotoxicity against human NCI-H322M cells assessed as cell growth at 0.01 uM after 48 hrs by sulforhodamine B assay relative to control; details: read-out: Activity
HOP-62 = assay: Cytotoxicity against human HOP62 cells assessed as growth inhibition after 48 hrs by sulforhodamine B assay; details: HOP-62, 48 h
M14 = assay: Cytotoxicity against human M14 cells assessed as cell growth at 0.01 uM after 48 hrs by sulforhodamine B assay relative to control; details: M14, 48 h, read-out: Activity
SK-MEL-28 [7] = assay: Cytotoxicity against human SK-MEL-28 cells assessed as cell growth at 100 uM after 48 hrs by sulforhodamine B assay relative to control; details: SK-MEL-28, 48 h, read-out: Activity
MDA-MB-468 = assay: Cytotoxicity against human MDA-MB-468 cells assessed as cell growth at 0.1 uM after 48 hrs by sulforhodamine B assay relative to control; details: MDA-MB-468, 48 h, read-out: Activity
OVCAR-5 [8] = assay: Cytotoxicity against human OVCAR5 cells assessed as cell growth at 1 uM after 48 hrs by sulforhodamine B assay relative to control; details: OVCAR-5, 48 h, read-out: Activity
KM12 = assay: Cytotoxicity against human KM12 cells assessed as cell growth at 100 uM after 48 hrs by sulforhodamine B assay relative to control; details: KM12, 48 h, read-out: Activity
SF-268 [9] = assay: Cytotoxicity against human SF268 cells assessed as cell growth at 1 uM after 48 hrs by sulforhodamine B assay relative to control; details: SF-268, 48 h, read-out: Activity
786-0 [10] = assay: Cytotoxicity against human 786-0 cells assessed as growth inhibition after 48 hrs by sulforhodamine B assay; details: 786-0, 48 h
SK-MEL-28 [11] = assay: Cytotoxicity against human SK-MEL-28 cells assessed as growth inhibition after 48 hrs by sulforhodamine B assay; details: SK-MEL-28, 48 h
MOLT-4 [12] = assay: Cytotoxicity against human MOLT4 cells assessed as cell growth at 0.01 uM after 48 hrs by sulforhodamine B assay relative to control; details: MOLT-4, 48 h, read-out: Activity
T47D [13] = assay: Cytotoxicity against human T47D cells assessed as growth inhibition after 48 hrs by sulforhodamine B assay
OVCAR-8 = assay: Cytotoxicity against human OVCAR8 cells assessed as cell growth at 1 uM after 48 hrs by sulforhodamine B assay relative to control; details: OVCAR-8, 48 h, read-out: Activity
LOX IMVI = assay: Cytotoxicity against human LOXIMVI cells assessed as growth inhibition after 48 hrs by sulforhodamine B assay
MDA-MB-435 [14] = assay: Cytotoxicity against human MDA-MB-435 cells assessed as growth inhibition after 48 hrs by sulforhodamine B assay; details: MDA-MB-435, 48 h
A498 [15] = assay: Cytotoxicity against human A498 cells assessed as growth inhibition after 48 hrs by sulforhodamine B assay; details: A498, 48 h
OVCAR-4 = assay: Cytotoxicity against human OVCAR4 cells assessed as cell growth at 0.01 uM after 48 hrs by sulforhodamine B assay relative to control; details: OVCAR-4, 48 h, read-out: Activity
T47D [16] = assay: Cytotoxicity against human T47D cells assessed as cell growth at 0.1 uM after 48 hrs by sulforhodamine B assay relative to control; details: read-out: Activity
OVCAR-5 [17] = assay: Cytotoxicity against human OVCAR5 cells assessed as cell growth at 0.1 uM after 48 hrs by sulforhodamine B assay relative to control; details: OVCAR-5, 48 h, read-out: Activity
MDA-MB-435 [18] = assay: Cytotoxicity against human MDA-MB-435 cells assessed as cell growth at 1 uM after 48 hrs by sulforhodamine B assay relative to control; details: MDA-MB-435, 48 h, read-out: Activity
[19] = read-out: LC50 (the source's name)

SMILES: COc1ccc(-c2cc(/C=C/C(=O)c3ccc(N)cc3)[nH]n2)cc1OC
- growth at 100 µM (SNB-19): -91%
- GI50 (MOLT-4 [1]): 3.11 µM
- TGI (MOLT-4 [1]): 16.5 µM
- CC50 (MOLT-4 [1]; [19]): > 100 µM
- growth at 10 µM (HCC 2998): -75%
- growth at 10 µM (K562): 3%
- growth at 0.1 µM (UACC-257): 90%
- growth at 0.1 µM (786-0 [2]): 95%
- growth at 0.1 µM (MOLT-4 [3]): 106%
- growth at 0.01 µM (A498 [4]): 95%
- growth at 10 µM (SF-268 [5]): -49%
- growth at 0.1 µM (RXF 393): 92%
- GI50 (DU-145): 3.74 µM
- TGI (DU-145): 13.5 µM
- CC50 (DU-145; [19]): 36.8 µM
- growth at 0.1 µM (BT-549): 92%
- growth at 1 µM (Malme-3M): 114%
- GI50 (SF-268 [6]): 1.89 µM
- TGI (SF-268 [6]): 4.4 µM
- CC50 (SF-268 [6]; [19]): 11.2 µM
- growth at 10 µM (PC-3): 20%
- growth at 0.01 µM (NCI-H322M): 96%
- GI50 (HOP-62): 2.8 µM
- LC50 (HOP-62): 32 µM
- TGI (HOP-62): 9.67 µM
- growth at 0.01 µM (M14): 95%
- growth at 100 µM (SK-MEL-28 [7]): -93%
- growth at 0.1 µM (MDA-MB-468): 91%
- growth at 1 µM (OVCAR-5 [8]): 94%
- growth at 100 µM (KM12): -98%
- growth at 1 µM (SF-268 [9]): 88%
- GI50 (786-0 [10]): 1.88 µM
- LC50 (786-0 [10]): 10.8 µM
- TGI (786-0 [10]): 4.39 µM
- GI50 (SK-MEL-28 [11]): 2.14 µM
- LC50 (SK-MEL-28 [11]): 21.1 µM
- TGI (SK-MEL-28 [11]): 5.66 µM
- growth at 0.01 µM (MOLT-4 [12]): 108%
- GI50 (T47D [13]): 4.25 µM
- LC50 (T47D [13]): > 100 µM
- TGI (T47D [13]): 26 µM
- growth at 1 µM (OVCAR-8): 93%
- GI50 (LOX IMVI): 1.92 µM
- LC50 (LOX IMVI): 7.98 µM
- TGI (LOX IMVI): 3.91 µM
- GI50 (MDA-MB-435 [14]): 2.53 µM
- LC50 (MDA-MB-435 [14]): 40.8 µM
- TGI (MDA-MB-435 [14]): 7.23 µM
- GI50 (A498 [15]): 2.37 µM
- LC50 (A498 [15]): 26.2 µM
- TGI (A498 [15]): 7.09 µM
- growth at 0.01 µM (OVCAR-4): 85%
- growth at 0.1 µM (T47D [16]): 90%
- growth at 0.1 µM (OVCAR-5 [17]): 95%
- growth at 1 µM (MDA-MB-435 [18]): 94%
